# Test results from ChEMBL document CHEMBL1150785 (Antimicrob Agents Chemother, 2007).
# Key:
# Format in all cases: functional
# [1] = system: Mycobacterium tuberculosis; experiment: Antimicrobial activity against Mycobacterium tuberculosis H37Ra
# [2] = system: Mycobacterium tuberculosis; experiment: Antimicrobial activity against Mycobacterium tuberculosis in mouse assessed as microbial kill activity
# [3] = system: Mycobacterium tuberculosis; experiment: Antimicrobial activity against Mycobacterium tuberculosis H37Ra assessed as early bactericidal activity
# [4] = system: Mycobacterium tuberculosis; experiment: Antimicrobial activity against Mycobacterium tuberculosis H37Ra assessed as microbial kill activity
smiles,measurement,setting,value
NNC(=O)c1ccncc1 [ISONIAZID],MIC,[1],0.0156 µg/mL
same,log10cfu,[2],1.3
same,log10CFU/ml/day,[3],0.9
same,log10CFU/ml,[4],2.89
